According to patent US20230210834A1, “RNA METHYLTRANSFERASE INHIBITOR, SCREENING METHOD THEREFOR, ANTI-CANCER AGENT EFFICACY ASSESSMENT MARKER, AND KIT FOR EFFECTIVELY PREDICTING FTSJ1 INHIBITOR” (National University Corporation Okayama University, priority 2019, published 2023):

What was measured:
[1] = system: polyglutamine luciferase reporter; test: Screening: polyglutamine luciferase reporter assay in NUGC3 cells (luminescence % of DMSO); type: cell-based, human; conditions: NUGC3 cells, luminescence relative to DMSO, concentration not given
Description: (§1) Human gastric cancer cell line NUGC3 was cultured in a DMEM medium (high glucose with L-glutamine and phenol red, produced by FUJIFILM Wako Pure Chemical Corporation) containing 10% fetal bovine serum (produced by Thermo Fisher Scientific Inc.) and penicillin-streptomycin (produced by FUJIFILM Wako Pure Chemical Corporation) (this medium is simply referred to below as “DMEM+10% FBS+1×P/S”). Then, the NUGC3 cells were seeded in a 60-mm culture dish (produced by BioLite) so that the cells were 80% confluent after 24 hours. Subsequently, 5 μg of a reporter plasmid and 15 μL of a lipofection reagent (transIT-LT1, produced by Mirus Bio LLC) were mixed in 500 μL of Opti-MEM medium (produced by Thermo Fisher Scientific, Inc.) to form a complex, which was added to the medium in which the NUGC3 cells were cultured in the 60-mm culture dish. For use as the reporter plasmid, 5 μg of a polyglutamine luciferase reporter was introduced (in the polyglutamine luciferase reporter, a Renilla luciferase expressed in the IRES was located as an internal standard downstream of the sequence of a firefly luciferase sequence to which polyglutamine was added). Alternatively, a YAP/TAZ activity reporter was used by simultaneously introducing 3 μg of 8×GTIIC plasmid and 2 μg of a Renilla luciferase reporter as an internal standard. After another 24 hours, the cells were exfoliated with a 0.05 w/v % trypsin-0.53 mmol/l EDTA-4Na solution (produced by FUJIFILM Wako Pure Chemical Corporation), and then seeded in a 96-well plate (produced by BioLite) so that the cells were 80% confluent after 24 hours. Twenty-four hours after seeding in the 96-well plate, the medium in each well was replaced with 100 μL of a medium (DMEM+10% FBS+an antibiotic) containing 10 μM or 5 μM of a compound for evaluation. After another 24 hours, the medium containing the compound was removed, and the 96-well plate was transferred on ice. Each well was washed with 100 μL of phosphate buffer (PBS, produced by FUJIFILM Wako Pure Chemical Corporation). Thereafter, 20 μL of Passive Lysis Buffer (1×) contained in a Dual-Luciferase Reporter Assay System (produced by Promega Corporation) was added. The plate was then gently shaken for 15 minutes at room temperature to lyse the cells. After confirming that the cells were lysed, 10 μL of the lysate was transferred from each well to each corresponding well of a white 96-well plate (produced by Greiner Bio-one). To each well of the white 96-well plate was added 100 μL of a mixture of a Luciferase Assay Buffer II and Luciferase Assay Substrate contained in the Dual-Luciferase Reporter Assay System (produced by Promega Corporation), whereby the luminescence of the firefly luciferase was induced, and the luminescence intensity was detected with a microluminometer (produced by Berthold Japan K.K.). Subsequently, 100 μL of a mixture of Stop & Glo Buffer and Stop & Glo Substrate contained in the Dual-Luciferase Reporter Assay System (produced by Promega Corporation) was added, whereby the luminescence of firefly luciferase was quenched while the luminescence of Renilla luciferase was induced, and the luminescence intensity was detected with a microluminometer (produced by Berthold Japan K.K.) in a manner similar to the above. The ratio of the luminescence intensity of the firefly luciferase and the luminescence intensity of the Renilla luciferase was calculated, and the luminescence intensity (%) of the wells containing each compound was calculated with the luminescence intensity of the well containing DMSO (dimethyl sulfoxide, used as a solvent for the compound liquids) taken as 100%. […] Unless otherwise specified, the measured values in the table represent the results obtained by evaluation with the addition of 10 μM of each compound for evaluation.

[2] = system: YAP/TAZ; test: Screening: YAP/TAZ activity reporter (8xGTIIC plasmid) assay in NUGC3 cells (luminescence % of DMSO); type: cell-based, human; conditions: NUGC3 cells, luminescence relative to DMSO, concentration not given
Description: as §1

[3] = polyglutamine luciferase reporter
[4] = YAP/TAZ activity reporter (8×GTIIC)

SMILES | Polyglutamine [1, 3] [%] | 8×GTIIC [2, 4] [%] | Polyglutamine [1] [%] | 8×GTIIC [2] [%]
Cc1cccc(C)c1S(=O)(=O)CC1CCC(C2CC2)CC1 (centres unmarked) [SA036] | 71.57 | 57.59 |  | 
Cc1ccc(C2=NC(S(=O)(=O)c3ccccc3)C(c3ccc(C)cc3)C2)cc1 (centres unmarked) [PVZF0096] |  |  | 73.68 | 103.6
CCC(C)(C)c1ccc(S(=O)(=O)CCC2CCCCC2)cc1 [PVZF2042] | 34.02 | 35.98 |  | 
Cc1ccc(S(=O)(=O)CC2CCC(C3CC3)CC2)cc1C (centres unmarked) [SA055] | 81.09 | 82.18 |  | 
Cc1ccc(S(=O)(=O)CC2CCC(S(C)(=O)=O)CC2)cc1 (centres unmarked) [SA062] | 93.21 | 100.9 |  | 
CCc1ccccc1C1CC(c2ccc(C)cc2)=NC1S(=O)(=O)c1ccc(C)cc1 (centres unmarked) [PVZF0091] |  |  | 34.27 | 40.68
Cc1ccc(S(=O)(=O)C2CCC(CS(=O)(=O)c3ccccc3)CC2)cc1 (centres unmarked) [SA040] | 44.87 | 51.54 |  | 
CCCCCCS(=O)(=O)c1ccc(C(C)(C)CC)cc1 [PVZF2038] | 58.2 | 56.84 |  | 
CCc1cc(C)c(S(=O)(=O)CC2CC(C)(C)CC(C)(C)C2)cc1C(C)C [SA006] | 37.54 | 40.21 |  | 
O=S(=O)(CCCC1CCCCC1)c1ccc(C2CCCCC2)cc1 [PVZF2071] | 63.89 | 70.27 |  | 
Cc1cc(C)c(C)c(S(=O)(=O)CC2CCC(S(C)(=O)=O)CC2)c1C (centres unmarked) [SA086] | 33.07 | 40.75 |  | 
CC1CC(C)CC(S(=O)(=O)C2CCC(CS(=O)(=O)c3ccccc3)CC2)C1 (centres unmarked) [SA090] | 84.73 | 64.02 |  | 
Cc1ccc(C2=NC(S(=O)(=O)c3ccccc3)C(c3ccccc3C)C2)cc1 (centres unmarked) [PVZF0074] |  |  | 79.16 | 96.63
CCc1ccc(S(=O)(=O)CC2CCC(S(C)(=O)=O)CC2)cc1CC (centres unmarked) [SA063] | 78.75 | 93.35 |  | 
Cc1ccc(C2=NC(S(C)(=O)=O)C(c3ccc(C)cc3)C2)cc1 (centres unmarked) [PVZF0087] |  |  | 81.35 | 187.1
CCCC(=O)C1CCC(CS(=O)(=O)c2ccc(C)c(C)c2)CC1 (centres unmarked) [SA026] | 63.06 | 46.21 |  | 
O=S(=O)(CCc1ccccc1)c1ccc(-c2ccccc2)cc1 [PVZF2032] | 73.08 | 76.99 |  | 
CCc1cccc(C2CC(c3ccc(C)cc3)=NC2S(C)(=O)=O)c1 (centres unmarked) [PVZF0061] |  |  | 69.94 | 121.9
CCc1ccc(C2CC(c3ccc(C)cc3)=NC2S(=O)(=O)c2ccccc2)cc1 (centres unmarked) [PVZF0089] |  |  | 67.1 | 70.13
O=C(CCCCc1ccccc1)C1CCC(CS(=O)(=O)c2ccccc2)CC1 (centres unmarked) [SA012] | 86.48 | 91.92 |  | 
CCc1cc(C)c(S(=O)(=O)CC2CC(C)(C)CC(C)(C)C2)cc1C [SA010] | 59.61 | 64.43 |  | 
CS(=O)(=O)C1CCC(CS(=O)(=O)c2ccc3c(c2)CCCC3)CC1 (centres unmarked) [SA046] | 75.23 | 83.81 |  | 
CC(=O)C1C=C(c2ccc(C)cc2)CC1c1ccc2ccccc2c1 (centres unmarked) [PZ178] | 60.25 | 119.3 |  | 
O=S(=O)(CCC1CCCCC1)c1ccc(-c2ccccc2)cc1 [PVZF2033] | 67.7 | 69.36 |  | 
Cc1c(C)c(C)c(S(=O)(=O)CC2CCC(S(C)(=O)=O)CC2)c(C)c1C (centres unmarked) [SA080] | 55.01 | 62.45 |  | 
CC(C)(C)c1ccc(S(=O)(=O)CCCC2CCCCC2)cc1 [PVZF2026] | 31.89 | 34.4 |  | 
Cc1cccc(S(=O)(=O)CC2CCC(C3CC3)CC2)c1 (centres unmarked) [SA054] | 109.1 | 83.34 |  | 
CC1(C)CC(CS(=O)(=O)c2ccc(-c3ccccc3)cc2)CC(C)(C)C1 [PVZF2036] | 79.76 | 70.46 |  | 
